Assays:
[1] = molecular target: T1, CDK7 (Homo sapiens, UniProt P50613); experiment: Rescue of compound-induced CDK7 degradation in Jurkat cells (ligand and proteasome dependence), immunoblot; type: cell-based; conditions: for rescue of the CDK7 degradation induced by bispecific compound 3 / rescue of the CDK7 degradation induced by bispecific compound 20: Jurkat cells pretreated 2 h (10 μM YKL-5-124, 10 μM DGY-05-180, 0.2 μM Bortezomib, 1 μM MLN4924); for rescue of the CDK7 degradation induced by bispecific compound 3: then 1 μM compound 3 for 4 h; for rescue of the CDK7 degradation induced by bispecific compound 20: then 1 μM compound 20 for 4 h; for dependence of the induced CDK7 degradation: Jurkat cells, 1 μM compound for 4 h after 2 h pretreatment with competitor or pathway inhibitor
T1 construct: endogenous in cells; host or cells: Jurkat cells
T1 sequence (P50613 2-346 limits assumed): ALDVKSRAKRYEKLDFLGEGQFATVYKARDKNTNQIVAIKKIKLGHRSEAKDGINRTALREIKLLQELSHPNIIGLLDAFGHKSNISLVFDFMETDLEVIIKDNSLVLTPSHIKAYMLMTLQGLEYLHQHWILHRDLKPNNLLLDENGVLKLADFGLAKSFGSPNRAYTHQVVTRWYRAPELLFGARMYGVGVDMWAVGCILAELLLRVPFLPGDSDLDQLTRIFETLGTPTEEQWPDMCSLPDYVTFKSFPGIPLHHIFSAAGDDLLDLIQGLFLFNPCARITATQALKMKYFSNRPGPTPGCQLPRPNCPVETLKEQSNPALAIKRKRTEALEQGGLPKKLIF
T1 sequence (P51946 whole entry partner): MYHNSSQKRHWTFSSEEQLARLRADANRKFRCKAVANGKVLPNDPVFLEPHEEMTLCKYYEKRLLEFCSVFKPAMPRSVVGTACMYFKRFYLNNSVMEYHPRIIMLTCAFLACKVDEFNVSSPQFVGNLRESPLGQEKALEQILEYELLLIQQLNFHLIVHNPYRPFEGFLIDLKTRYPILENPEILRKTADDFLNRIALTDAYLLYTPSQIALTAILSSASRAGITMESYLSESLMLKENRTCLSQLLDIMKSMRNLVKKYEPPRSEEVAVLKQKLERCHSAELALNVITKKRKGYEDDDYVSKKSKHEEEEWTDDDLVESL
T1 sequence (P51948 whole entry partner): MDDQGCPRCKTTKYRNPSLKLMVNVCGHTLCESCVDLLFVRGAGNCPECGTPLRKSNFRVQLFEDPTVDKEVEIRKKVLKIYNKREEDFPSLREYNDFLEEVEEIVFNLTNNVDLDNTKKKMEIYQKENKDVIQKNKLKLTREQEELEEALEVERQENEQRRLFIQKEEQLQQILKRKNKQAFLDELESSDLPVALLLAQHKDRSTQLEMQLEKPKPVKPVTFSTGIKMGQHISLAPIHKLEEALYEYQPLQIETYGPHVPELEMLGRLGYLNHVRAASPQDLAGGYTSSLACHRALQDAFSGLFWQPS
Experimental: (§1) Jurkat cells were treated with DMSO or 1 μM of compounds 1-26 for 6 hours. Cells were then lysed in radioimmunoprecipitation assay (RIPA) buffer (Sigma® Life Science) containing protease/phosphatase inhibitor cocktail (Roche). The protein concentrations were measured by bicinchoninic acid assay (BCA) analysis (Pierce™). Equal amounts of protein were resolved by 4-12% Tris-Base gels (Invitrogen™), and then transferred to the immunoblot polyvinylidene difluoride (PVDF) membrane (BioRad), and immunoblotted with primary antibodies against CDK7 (cell signaling) and glyceraldehyde 3-phosphate dehydrogenase (GAPDH) (Cell Signaling Technology®), and then immunoblotted with IRDye®800-labeled goat anti-rabbit immunoglobulin G (IgG) and IRDye®680-labeled goat anti-mouse IgG (LI-COR®) secondary antibodies. The membranes were detected on an Odyssey® CLx system.
Jurkat cells were pretreated with 10 μM YKL-5-124 (the parental compound and known CDK7 inhibitor), 10 μM DGY-05-180 (VHL ligand), 0.2 μM Bortezomib (a proteasome inhibitor available from, e.g., Millipore Sigma, Cat. No. 179324-69-7, Burlington, MA), and 1 μM MLN4924 (a neddylation inhibitor available from, e.g., MedChemExpress (MCE®), Cat. No. HY-70062, Monmouth Junction, NJ), for 2 h, and then treated with 1 μM compound 3 or 20 for 4 h. Cells were lysed and immunoblotted as described in Example 27 with antibodies to CDK7 and GAPDH. The structures of YKL-5-124, DGY-05-180, Bortezomib and MLN4924 are set forth below.

[2] = molecular target: T1, CDK7; experiment: CDK7 degradation in Jurkat cells by immunoblot; type: cell-based; conditions: 1 μM compound, 6 hours, vs DMSO
Experimental: as §1

Structure (SMILES) | rescue of the CDK7 degradation induced by bispecific compound 3 [1] | rescue of the CDK7 degradation induced by bispecific compound 20 [1] | dependence of the induced CDK7 degradation [1] | degradation of CDK7 (immunoblot) [2]
Cc1ncsc1-c1ccc([C@H](C)NC(=O)[C@@H]2C[C@@H](O)CN2C(=O)[C@@H](NC(=O)CCCNC(=O)c2ccc(C(=O)Nc3n[nH]c4c3CN(C(=O)N[C@H](CN(C)C)c3ccccc3)C4(C)C)cc2)C(C)(C)C)cc1 [Compound 3, N1-(5-(((S)-2-(dimethylamino)-1-phenylethyl)carbamoyl)-6,6-dimethyl-1,4,5,6-tetrahydropyrrolo[3,4-c]pyrazol-3-yl)-N4-(4-(((S)-1-((2S,4R)-4-hydroxy-2-(((S)-1-(4-(4-methylthiazol-5-yl)phenyl)ethyl)carbamoyl)pyrrolidin-1-yl)-3,3-dimethyl-1-oxobutan-2-yl)amino)-4-oxobutyl)terephthalamide] | – | – | both ligand- and proteasome-dependent | induced the degradation of CDK7
NS(=O)(=O)OC[C@@H]1C[C@@H](n2ccc3c(N[C@H]4CCc5ccccc54)ncnc32)C[C@@H]1O [MLN4924] | rescued the CDK7 degradation | rescued the CDK7 degradation | – | –

Further lines, results first:

rescue of the CDK7 degradation induced by bispecific compound 3 [1] | rescue of the CDK7 degradation induced by bispecific compound 20 [1] | dependence of the induced CDK7 degradation [1] | degradation of CDK7 (immunoblot) [2] | Structure (SMILES)
rescued the CDK7 degradation | rescued the CDK7 degradation | – | – | CC(C)C[C@H](NC(=O)[C@H](Cc1ccccc1)NC(=O)c1cnccn1)B(O)O [Bortezomib]
– | – | both ligand- and proteasome-dependent | induced the degradation of CDK7 | Cc1ncsc1-c1ccc([C@H](C)NC(=O)[C@@H]2C[C@@H](O)CN2C(=O)[C@@H](NC(=O)CCCCNC(=O)c2ccc(C(=O)Nc3n[nH]c4c3CN(C(=O)N[C@H](CN(C)C)c3ccccc3)C4(C)C)cc2)C(C)(C)C)cc1 [Compound 20, N^1-(5-(((S)-2-(dimethylamino)-1-phenylethyl)carbamoyl)-6,6-dimethyl-1,4,5,6-tetrahydropyrrolo[3,4-c]pyrazol-3-yl)-N^4-(5-(((S)-1-((2S,4R)-4-hydroxy-2-(((S)-1-(4-(4-methylthiazol-5-yl)phenyl)ethyl)carbamoyl)pyrrolidin-1-yl)-3,3-dimethyl-1-oxobutan-2-yl)amino)-5-oxopentyl)terephthalamide]
rescued the CDK7 degradation | rescued the CDK7 degradation | – | – | C=CC(=O)Nc1ccc(C(=O)Nc2n[nH]c3c2CN(C(=O)N[C@H](CN(C)C)c2ccccc2)C3(C)C)cc1 [YKL-5-124]

— patent US12491251B2, “Degraders of cyclin-dependent kinase 7 (CDK7) and uses thereof” (DANA-FARBER CANCER INSTITUTE, INC., priority 2019, dated 2025)
